# Patent publication US9284333B2, “Fused pyrroledicarboxamides and their use as pharmaceuticals” (SANOFI, priority 2012, dated 2016)
# Target: Human TASK-1 channels (Homo sapiens (Human), UniProt O14649)
# Assay: Determination of the activity on the TASK-1 channel in Xenopus oocytes (two-microelectrode voltage clamp)
# Type: cell-based
# Details: for IC50: human TASK-1 expressed in Xenopus oocytes, room temperature, read-out: IC50 value for TASK-1 inhibition; for inhibition at 5 µM: compound concentration 5 μM
# Outline: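 Xenopus oocytes were injected with human TASK-1 cRNA and recorded two days later by two-microelectrode voltage clamp, holding at −90 mV with 500 ms steps to 40 mV. Superfusion used ND96, pH 7.4, at room temperature, with rising compound concentrations; percentage inhibition of control current was fitted to a dose-response curve for IC50.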
# Sequence of Human TASK-1 channels (O14649 whole entry): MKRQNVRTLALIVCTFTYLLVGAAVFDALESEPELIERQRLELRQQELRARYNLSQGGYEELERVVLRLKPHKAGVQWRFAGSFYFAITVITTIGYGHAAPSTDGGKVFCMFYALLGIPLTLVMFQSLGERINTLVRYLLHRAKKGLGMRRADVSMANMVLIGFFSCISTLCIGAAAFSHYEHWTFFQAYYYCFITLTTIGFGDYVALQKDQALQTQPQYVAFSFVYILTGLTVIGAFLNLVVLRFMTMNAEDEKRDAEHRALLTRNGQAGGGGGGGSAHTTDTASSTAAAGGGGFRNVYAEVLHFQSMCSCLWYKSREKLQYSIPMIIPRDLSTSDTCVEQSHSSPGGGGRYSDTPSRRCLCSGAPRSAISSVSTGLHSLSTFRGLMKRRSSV
Compound,IC50 [nM],inhibition at 5 µM [%]
"CC[C@@H](NC(=O)c1cc(C(=O)N[C@H](C)c2ccc(F)cc2)n2c1COCC2)c1cccnc1C(F)(F)F [16dt, 3,4-Dihydro-1H-pyrrolo[2,1-c][1,4]oxazine-6,8-dicarboxylic acid 6-{[(R)-1-(4-fluoro-phenyl)-ethyl]-amide} 8-{[(R)-1-(2-trifluoromethyl-pyridin-3-yl)-propyl]-amide}]",1000,
"CC[C@@H](NC(=O)c1cc(C(=O)NCc2ncco2)n2c1COCC2)c1ccccc1 [16ha, 3,4-Dihydro-1H-pyrrolo[2,1-c][1,4]oxazine-6,8-dicarboxylic acid 6-[(oxazol-2-ylmethyl)-amide] 8-[((R)-1-phenyl-propyl)-amide]]",350,
"CC[C@@H](NC(=O)c1cc(C(=O)Nc2cc(C(F)(F)F)ccc2Cl)c2n1CCOC2)c1ccccc1 [16jx, 3,4-Dihydro-1H-pyrrolo[2,1-c][1,4]oxazine-6,8-dicarboxylic acid 8-[(2-chloro-5-trifluoromethyl-phenyl)-amide] 6-[((R)-1-phenyl-propyl)-amide]]",220,
"CC[C@@H](NC(=O)c1cc(C(=O)N2CCC[C@@H]2C)c2n1CCOC2)c1ccc(C(F)(F)F)nc1 [16nk, 8-((S)-2-Methyl-pyrrolidine-1-carbonyl)-3,4-dihydro-1H-pyrrolo[2,1-c][1,4]oxazine-6-carboxylic acid [(R)-1-(6-trifluoromethyl-pyridin-3-yl)-propyl]-amide]",,62
"CC[C@@H](NC(=O)c1cc(C(=O)N2CCC[C@@H]2C)n2c1COCC2)c1ccc(C(F)(F)F)cc1F [16ct, 6-((S)-2-Methyl-pyrrolidine-1-carbonyl)-3,4-dihydro-1H-pyrrolo[2,1-c][1,4]oxazine-8-carboxylic acid [(R)-1-(2-fluoro-4-trifluoromethyl-phenyl)-propyl]-amide]",210,
"CC[C@@H](NC(=O)c1cc(C(=O)N[C@@H](CO)C(C)C)n2c1COCC2)c1ccccc1 [16jj, 3,4-Dihydro-1H-pyrrolo[2,1-c][1,4]oxazine-6,8-dicarboxylic acid 6-[((R)-1-hydroxymethyl-2-methyl-propyl)-amide] 8-[((R)-1-phenyl-propyl)-amide]]",4400,
"CC[C@@H](NC(=O)c1cc(C(=O)N[C@@H]2CCc3ccccc32)n2c1COCC2)c1ccccc1 [16gp, 3,4-Dihydro-1H-pyrrolo[2,1-c][1,4]oxazine-6,8-dicarboxylic acid 6-(R)-indan-1-ylamide 8-[((R)-1-phenyl-propyl)-amide]]",570,
"CC[C@@H](NC(=O)c1cc(C(=O)N[C@@H](C)c2ccc(F)cc2)n2c1COCC2)c1ncccn1 [16ef, 3,4-Dihydro-1H-pyrrolo[2,1-c][1,4]oxazine-6,8-dicarboxylic acid 6-{[(S)-1-(4-fluoro-phenyl)-ethyl]-amide} 8-[((R)-1-pyrimidin-2-yl-propyl)-amide]]",820,
"CC[C@@H](NC(=O)c1cc(C(=O)NCC(CC2CC2)c2ccccc2)n2c1CCCC2)c1ccccc1 (stereo partly drawn) [16na, 5,6,7,8-Tetrahydro-indolizine-1,3-dicarboxylic acid 3-[(3-cyclopropyl-2-phenyl-propyl)-amide] 1-[((R)-1-phenyl-propyl)-amide]]",1700,
"CC[C@@H](NC(=O)c1cc(C(=O)NCC2(c3ccccc3)CCCC2)n2c1CCCC2)c1ccccc1 [16ng, 5,6,7,8-Tetrahydro-indolizine-1,3-dicarboxylic acid 3-[(1-phenyl-cyclopentylmethyl)-amide] 1-[((R)-1-phenyl-propyl)-amide]]",,55
"CCOC(=O)[C@H](NC(=O)c1cc(C(=O)N[C@H](CC)c2ccccc2)c2n1CCOC2)c1ccccc1 [16hq, (R)-Phenyl-{[8-((R)-1-phenyl-propylcarbamoyl)-3,4-dihydro-1H-pyrrolo[2,1-c][1,4]oxazine-6-carbonyl]-amino}-acetic acid ethyl ester]",320,
"CC[C@@H](NC(=O)c1cc(C(=O)NCc2ccc(C(=O)OC)cc2)n2c1COCC2)c1ccccc1 [16ir, 4-({[8-((R)-1-Phenyl-propylcarbamoyl)-3,4-dihydro-1H-pyrrolo[2,1-c][1,4]oxazine-6-carbonyl]-amino}-methyl)-benzoic acid methyl ester]",350,
"CC[C@@H](NC(=O)c1cc(C(=O)N2CCC[C@@H]2C)n2c1COCC2)c1cncc(C(F)(F)F)c1 [16bk, 6-((S)-2-Methyl-pyrrolidine-1-carbonyl)-3,4-dihydro-1H-pyrrolo[2,1-c][1,4]oxazine-8-carboxylic acid [(R)-1-(5-trifluoromethyl-pyridin-3-yl)-propyl]-amide]",,53
"CC[C@@H](NC(=O)c1cc(C(=O)NC2CC2)n2c1COCC2)c1ccccc1 [16gi, 3,4-Dihydro-1H-pyrrolo[2,1-c][1,4]oxazine-6,8-dicarboxylic acid 6-cyclopropylamide 8-[((R)-1-phenyl-propyl)-amide]]",1300,
"CC[C@@H](NC(=O)c1cc(C(=O)N2CCC[C@H]2C)n2c1COCC2)c1ccc(C(F)(F)F)nc1 [16ny, 6-((R)-2-Methyl-pyrrolidine-1-carbonyl)-3,4-dihydro-1H-pyrrolo[2,1-c][1,4]oxazine-8-carboxylic acid [(R)-1-(6-trifluoromethyl-pyridin-3-yl)-propyl]-amide]",2800,

# Further compounds by falling IC50, results first:
IC50 [nM],inhibition at 5 µM [%],Compound
200,,"CC[C@@H](NC(=O)c1cc(C(=O)N2CCCCCC2)n2c1CCCC2)c1ccccc1 [16mr, 3-(Azepane-1-carbonyl)-5,6,7,8-tetrahydro-indolizine-1-carboxylic acid ((R)-1-phenyl-propyl)-amide]"
200,,"CC[C@@H](NC(=O)c1cc(C(=O)N2CCC[C@@H]2C)c2n1CCOC2)c1ccccc1 [16ki, 8-((S)-2-Methyl-pyrrolidine-1-carbonyl)-3,4-dihydro-1H-pyrrolo[2,1-c][1,4]oxazine-6-carboxylic acid ((R)-1-phenyl-propyl)-amide]"
150,,"CC[C@@H](NC(=O)c1cc(C(=O)NCc2nccs2)c2n1CCOC2)c1ccccc1 [16jt, 3,4-Dihydro-1H-pyrrolo[2,1-c][1,4]oxazine-6,8-dicarboxylic acid 6-[((R)-1-phenyl-propyl)-amide] 8-[(thiazol-2-ylmethyl)-amide]]"
120,,"CC[C@@H](NC(=O)c1cc(C(=O)N(C)CC(=O)OC(C)C)n2c1COCC2)c1ccccc1 [16iu, {Methyl-[8-((R)-1-phenyl-propylcarbamoyl)-3,4-dihydro-1H-pyrrolo[2,1-c][1,4]oxazine-6-carbonyl]-amino}-acetic acid isopropyl ester]"
100,,"CC[C@@H](NC(=O)c1cc(C(=O)N(C)[C@@H](C)C(=O)OC(C)C)n2c1COCC2)c1ccccc1 [16ja, (S)-2-{Methyl-[8-((R)-1-phenyl-propylcarbamoyl)-3,4-dihydro-1H-pyrrolo[2,1-c][1,4]oxazine-6-carbonyl]-amino}-propionic acid isopropyl ester]"
54,,"CC[C@@H](NC(=O)c1cc(C(=O)N[C@H](C)c2ccc(F)cc2)n2c1COCC2)c1ccc(C(F)(F)F)cn1 [16eg, 3,4-Dihydro-1H-pyrrolo[2,1-c][1,4]oxazine-6,8-dicarboxylic acid 6-{[(R)-1-(4-fluoro-phenyl)-ethyl]-amide} 8-{[(R)-1-(5-trifluoromethyl-pyridin-2-yl)-propyl]-amide}]"
48,,"CC[C@@H](NC(=O)c1cc(C(=O)N[C@H]2CCc3ccccc32)n2c1COCC2)c1ccccc1 [16gj, 3,4-Dihydro-1H-pyrrolo[2,1-c][1,4]oxazine-6,8-dicarboxylic acid 6-(S)-indan-1-ylamide 8-[((R)-1-phenyl-propyl)-amide]]"
